Measurements taken from patent US9163012B2, “Carbamate and urea inhibitors of 11β-hydroxysteroid dehydrogenase 1” (Vitae Pharmaceuticals, Inc., priority 2009, dated 2015).
pIC50: −log10 of the molar value. Like-named read-outs stand apart in the source and are kept apart here.

Biological target: 11β-HSD1 (Homo sapiens (Human), UniProt P28845)
Assay: Biological Test Example 1: inhibition of a microsomal preparation of 11β-HSD1 (SPA)
Type: biochemical
Details: for inhibition at 0.1 µM: read-out: Average % inhibition at 100 nM, Biological Test Example 1; for inhibition at 0.111 µM: 111 nM compound, read-out: Average % inhibition at 111 nM
Procedure: All reactions were carried out at rt in 96 well clear flexible PET Microbeta plates (PerkinElmer). […] After a 10 minute pre-incubation, 50 μL of enzyme solution containing microsomes isolated from CHO cells overexpressing human 11-HSD1 (10-20 μg/ml of total protein) was added, and the plates were incubated for 90 minutes at rt. The reaction was stopped by adding 50 μl of the SPA beads suspension containing 10 μM […], 5 mg/ml protein A coated YSi SPA beads (GE Healthcare) and 3.3 μg/ml of anti-cortisol antibody (East Coast Biologics) in Superblock buffer (Bio-Rad). The plates were shaken for 120 minutes at rt, and the SPA signal corresponding to [^3H]cortisol was measured on a Microbeta plate reader.

[1] = Biological Test Example 1, microsomes from CHO cells overexpressing human 11β-HSD1, read-out: IC50 Range
[2] = Biological Test Example 1, read-out: IC50
[3] = Biological Test Example 1, 100 nM compound

11β-HSD1, sequence (P28845 whole entry): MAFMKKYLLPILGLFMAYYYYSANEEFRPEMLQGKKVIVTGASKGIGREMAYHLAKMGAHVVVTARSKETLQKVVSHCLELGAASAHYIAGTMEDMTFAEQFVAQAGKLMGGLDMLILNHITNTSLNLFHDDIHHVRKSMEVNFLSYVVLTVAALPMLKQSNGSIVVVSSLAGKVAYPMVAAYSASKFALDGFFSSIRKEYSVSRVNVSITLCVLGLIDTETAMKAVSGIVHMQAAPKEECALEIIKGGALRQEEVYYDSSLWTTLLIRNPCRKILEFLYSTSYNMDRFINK

| Structure (SMILES) | pIC50 [1] | pIC50 [2] | inhibition at 0.1 µM (100 nM compound) | inhibition at 0.111 µM (Biological Test Example 1) | Average % inhibition at 100 nM [3] | Average % inhibition at 100 nM | pIC50 (read-out: IC50) | pIC50 (read-out: IC50 Range) |
| --- | --- | --- | --- | --- | --- | --- | --- | --- |
| Cc1nc2cc(F)ccc2n1C1CCN(C(=O)OC2C3CC4CC2CC(C(N)=O)(C4)C3)C1 (single isomer, unassigned; isomer 1) [EXAMPLE 74 Isomer 1] | – | – | – | – | – | 91.9% | 8.65 | > 7.00 |
| O=C(OC1C2CC3CC1CC(O)(C3)C2)N1CCC(c2ncc(Cl)cn2)C1 (single isomer, unassigned) [EXAMPLE 24 Isomer 2, cis-1-hydroxy-4-adamantyl 3-(5-chloropyrimidin-2-yl)pyrrolidine-1-carboxylate] | – | – | – | – | 34.7% | – | – | – |
| COc1cnc(C2CCN(C(=O)OC3C4CC5CC3CC(C(N)=O)(C5)C4)C2)nc1 (single isomer, unassigned) [EXAMPLE 44 Isomer 2, 1-carbamoyl-4-adamantyl 3-(5-methoxypyrimidin-2-yl)pyrrolidine-1-carboxylate] | – | – | – | – | 2.4% | – | – | – |
| Cn1ccc(-c2csc([C@H]3CCCN3C(=O)OC3C4CC5CC(C4)CC3C5)n2)cc1=O (stereo partly drawn) [EXAMPLE 53, (R)-2-adamantyl 2-(4-(1-methyl-2-oxo-1,2-dihydropyridin-4-yl)thiazol-2-yl)pyrrolidine-1-carboxylate] | > 7.00 | 9.33 | 95.8% | – | – | – | – | – |
| Cn1c(=O)ccc2cc(C3CCN(C(=O)OC4C5CC6CC(C5)CC4C6)C3)ccc21 (centres unmarked) [EXAMPLE 17, 2-adamantyl 3-(1-methyl-2-oxo-1,2-dihydroquinolin-6-yl)pyrrolidine-1-carboxylate] | > 7.00 | 8.71 | 94.2% | – | – | – | – | – |
| NC(=O)[C@]12CC3CC(C1)[C@@H](OC(=O)N1CC[C@@H](Oc4ccc(C(F)(F)F)cn4)C1)C(C3)C2 [EXAMPLE 5, (R)-(trans-(1-carbamoyl-4-adamantyl)) 3-(5-(trifluoromethyl)pyridin-2-yloxy)pyrrolidine-1-carboxylate] | > 7.00 | 9.00 | 94.9% | – | – | – | – | – |
| COC(=O)COCC1(c2ccccc2)CCN(C(=O)OC2C3CC4CC(C3)CC2C4)CC1 (centres unmarked) [EXAMPLE 15, 2-adamantyl 4-((2-methoxy-2-oxoethoxy)methyl)-4-phenylpiperidine-1-carboxylate] | > 7.00 | 8.27 | – | 80.6% | – | – | – | – |
| O=C(OC1C2CC3CC(C2)CC1C3)N1CCC[C@@H]1c1nc(-c2cc[n+]([O-])cc2)cs1 (stereo partly drawn) [EXAMPLE 52, (R)-4-(2-(1-((2-adamantyloxy)carbonyl)pyrrolidin-2-yl)thiazol-4-yl)pyridine 1-oxide] | > 7.00 | 8.92 | 95.1% | – | – | – | – | – |
| Cc1ccnc(C2CCN(C(=O)OC3C4CC5CC3CC(C(N)=O)(C5)C4)C2)n1 (single isomer, unassigned) [EXAMPLE 38 Isomer 1, 1-carbamoyl-4-adamantyl 3-(4-methylpyrimidin-2-yl)pyrrolidine-1-carboxylate] | > 7.00 | 8.48 | – | – | 93.1% | – | – | – |
| Cn1ccc(-c2cnc(C3CCN(C(=O)OC4C5CC6CC4CC(C(N)=O)(C6)C5)C3)nc2)cc1=O (single isomer, unassigned) [EXAMPLE 57 Isomer 2, 1-carbamoyl-4-adamantyl 3-(5-(1-methyl-2-oxo-1,2-dihydropyridin-4-yl)pyrimidin-2-yl)pyrrolidine-1-carboxylate] | < 7.00 | < 7.00 | 18.1% | – | – | – | – | – |
| O=C(OC1C2CC3CC1CC(O)(C3)C2)N1CCC(c2ccncc2)C1 (centres unmarked) [EXAMPLE 21, 1-hydroxy-4-adamantyl 3-(pyridin-4-yl)pyrrolidine-1-carboxylate] | > 7.00 | 7.68 | 81.4% | – | – | – | – | – |
| CC(C)(O)CC1(c2ccccc2)CCN(C(=O)O[C@H]2C3CC4CC2C[C@](C(N)=O)(C4)C3)C1 (stereo partly drawn) [EXAMPLE 49, trans-1-carbamoyl-4-adamantyl 3-(2-hydroxy-2-methylpropyl)-3-phenylpyrrolidine-1-carboxylate] | > 7.00 | 8.68 | 91.6% | – | – | – | – | – |

Continued, in another order:

| pIC50 [1] | pIC50 [2] | inhibition at 0.1 µM (100 nM compound) | inhibition at 0.111 µM (Biological Test Example 1) | Average % inhibition at 100 nM [3] | Structure (SMILES) | Average % inhibition at 100 nM | pIC50 (read-out: IC50) | pIC50 (read-out: IC50 Range) |
| --- | --- | --- | --- | --- | --- | --- | --- | --- |
| > 7.00 | 7.87 | 87.5% | – | – | NC(=O)[C@]12CC3CC(C1)[C@@H](OC(=O)N1CCCC1c1ncc(Cl)cn1)C(C3)C2 (some centres unmarked) [EXAMPLE 45, 1-carbamoyl-4-adamantyl 2-(5-chloropyrimidin-2-yl)pyrrolidine-1-carboxylate] | – | – | – |
| > 7.00 | 7.36 | – | 72.3% | – | O=C(O)COCC1(c2ccccc2)CCN(C(=O)OC2C3CC4CC(C3)CC2C4)CC1 (centres unmarked) [EXAMPLE 16, 2-((1-(2-adamantyloxycarbonyl)-4-phenylpiperidin-4-yl)methoxy)acetic acid] | – | – | – |
| > 7.00 | 7.08 | – | – | 59.1% | Cc1ncc(C2CCN(C(=O)OC3C4CC5CC3CC(C(N)=O)(C5)C4)C2)cn1 (single isomer, unassigned) [EXAMPLE 36 Isomer 1, 1-carbamoyl-4-adamantyl 3-(2-methylpyrimidin-5-yl)pyrrolidine-1-carboxylate] | – | – | – |
| > 7.00 | 7.40 | 69.9% | – | – | Cc1nnc(C2CCCN(C(=O)OC3C4CC5CC3CC(O)(C5)C4)C2)o1 (centres unmarked) [EXAMPLE 25, 1-hydroxy-4-adamantyl 3-(5-methyl-1,3,4-oxadiazol-2-yl)piperidine-1-carboxylate] | – | – | – |
| > 7.00 | 9.00 | 91.2% | – | – | NC(=O)[C@]12CC3CC(C1)[C@@H](OC(=O)N1CC[C@H](n4c(=O)[nH]c5cc(F)ccc54)C1)C(C3)C2 [EXAMPLE 63, (S)-trans-1-carbamoyl-4-adamantyl 3-(5-fluoro-2-oxo-2,3-dihydro-1H-benzo[d]imidazol-1-yl)pyrrolidine-1-carboxylate] | – | – | – |
| > 7.00 | 7.04 | 44.1% | – | – | Cn1c(C2CCN(C(=O)O[C@H]3C4CC5CC3C[C@](C(N)=O)(C5)C4)C2)nc2ccccc21 (stereo partly drawn) [EXAMPLE 31, (trans-1-carbamoyl-4-adamantyl) 3-(1-methyl-1H-benzo[d]imidazol-2-yl)pyrrolidine-1-carboxylate] | – | – | – |
| > 7.00 | 8.38 | 89.9% | – | – | NC(=O)[C@]12CC3CC(C1)[C@@H](OC(=O)N1CC[C@@H](n4c(=O)[nH]c5ccccc54)C1)C(C3)C2 [EXAMPLE 61, (R)-trans-1-carbamoyl-4-adamantyl 3-(2-oxo-2,3-dihydro-1H-benzo[d]imidazol-1-yl)pyrrolidine-1-carboxylate] | – | – | – |
| > 7.00 | 8.68 | 93.1% | – | – | Cn1ccc(-c2csc([C@H]3CCCN3C(=O)O[C@H]3C4CC5CC3C[C@](C(N)=O)(C5)C4)n2)cc1=O [EXAMPLE 55, (R)-trans-1-carbamoyl-4-adamantyl 2-(4-(1-methyl-2-oxo-1,2-dihydropyridin-4-yl)thiazol-2-yl)pyrrolidine-1-carboxylate] | – | – | – |
| > 7.00 | 9.27 | 96.9% | – | – | NC(=O)[C@]12CC3CC(C1)[C@@H](OC(=O)N1CC[C@H](Oc4ccc(C(F)(F)F)cn4)C1)C(C3)C2 [EXAMPLE 6, (S)-(trans-(1-carbamoyl-4-adamantyl)) 3-(5-(trifluoromethyl)pyridin-2-yloxy)pyrrolidine-1-carboxylate] | – | – | – |
| > 7.00 | 7.56 | – | 82.2% | – | O=C(O)c1ccc(C2CCCN(C(=O)OC3C4CC5CC(C4)CC3C5)C2)cc1 (centres unmarked) [EXAMPLE 18, 4-(1-(2-adamantyloxycarbonyl)piperidin-3-yl)benzoic acid] | – | – | – |
